Reference: PMC4811417, “Sulforaphane Suppresses Hepatitis C Virus Replication by Up-Regulating Heme Oxygenase-1 Expression through PI3K/Nrf2 Pathway” (PLoS ONE, 2016)
Like-named read-outs stand apart in the source and are kept apart here.

Columns and labels:
[1] = test system: HCV subgenomic replicon (genotype 1b) in Ava5 cells; assay: Anti-HCV activity in HCV replicon (Ava5) cells, qRT-PCR / Western blotting; format: cell-based, Hepatitis C virus; conditions: for Selective Index (SI): CC50/EC50, Ava5 cells; for EC50: read-out: Anti-HCV activity (EC50)
Description: Huh-7, Huh7.5, Ava5 (harboring HCV subgenomic replicon; genotype 1b) and Huh7.5/J6/JFHEMCVIRESRlucNeo cells (harboring HCV subgenomic replicon RNA and renilla luciferase reporter gene; genotype 2a) obtained from Apath, LLC (St. Louis, MO) were routinely passaged in Dulbecco’s modified Eagle’s medium containing 10% heat-inactivated fetal bovine serum, 1% nonessential amino acids, and 1% antibiotic-antimycotic in a 37°C incubator with a humidified atmosphere containing 5% CO2. Sulforaphane (SFN), phenethyl isothiocyanate, benzyl isothiocyanate, benzyl isothiocyanate, butyl isothiocyanate, allyl isothiocyanate, and HO-1-specific inhibitor (tin protoporphyrin IX dichloride; SnPP) were obtained from Sigma Aldrich Co. (St. Louis, MO, USA). Biliverdin was obtained from MP Biomedicals, Inc (Santa Ana, CA, USA). […] Daclatasvir and telaprevir were obtained from Legend Stat International Co., Ltd (Omdurman, Sudan). Sofosbuvir was obtained from Shanghai Haoyuan Chemexpress Co., Ltd. (Shanghai, China). These compounds were stored at a concentration of 10 mM in 100% dimethyl sulfoxide (DMSO) at 4°C until use. All the reactions were performed using a final concentration of 0.1% DMSO.
(§1) Total cellular RNA extracted from cultured cells was purified using the Total RNA Miniprep Purification Kit (GMbiolab Co., Ltd, Taiwan). RNA samples were reverse transcribed into complementary DNA using the M-MLV Reverse Transcription System (Promega). Quantitative real-time polymerase chain reaction (qRT-PCR) was performed to assess the relative levels of gene expression using the ABI Step One Real-Time PCR-System (ABI Warrington, UK). Glyceraldehydes-3-phosphate dehydrogenase (gapdh) gene expression was used as the endogenous control for normalization in all qRT-PCR analyses. Relative expression was calculated using the comparative Ct method. Absolute quantitation of HCV RNA copies was calculated and determined relative to standard curves comprised of serial dilution of expression plasmids containing the coding sequence of HCV NS5B using RT-qPCR. The primer sequences primers for qRT-PCR were used as previously described (Table 1).
(§2) Western blotting was performed as previously described. Proteins from cell lysates were separated using SDS-PAGE and transferred onto PVDF membranes. The membranes were blocked with 5% nonfat milk in phosphate-buffered saline containing Tween 20 (PBST) and incubated overnight at 4°C with primary antibodies against GAPDH (1:10,000; GeneTex, CA, USA), NS5B (1:5,000; Abcam, Cambridge, MA, USA), Nrf2 (1:3,000; GeneTex), HO-1 (1:3,000; GeneTex), biliverdin reductase A (BVRA), Keap1 and Bach1 (1:1,000; Abcam), and total-phohphoinositide 3-kinase (PI3K) or phosphor-PI3K (1:1000; Cell Signaling Technology, Inc., Beverly, MA, USA). The immunoreactive blot signals were detected using the enhanced chemiluminescence Western blotting reagent (Perkin-Elmer, CT, USA).
To investigate the anti-HCV activity of SFN and its analogs (Fig 1A), Huh-7-derived Ava5 cells that harbor an HCV subgenomic RNA replicon were treated with increasing concentrations of SFN for 3 days. The anti-HCV activity and cytotoxicity of SFN and its analogs were analyzed by qRT-PCR and MTS assay, respectively. […] Moreover, the anti-HCV replication activity of SFN was analyzed by Western blotting and qRT-PCR.

[2] = Cell viability / cytotoxicity, MTS assay; format: cell-based; conditions: human; Ava5 cells, MTS assay; read-out: Cyto-Toxicity (CC50)
Excerpt: (§3) The CellTiter 96 Aqueous One Solution Cell Proliferation assay system (Promega, Madison, WI, USA), which is a colorimetric approach for the detection of the cytotoxic effect of a compound, was used to measure cell viability according to the manufacturer’s protocol. […] The absorbance values were detected at 490 nm using a 96-well plate reader (Bio-Rad, Hertfordshire, UK).

[3] = test system: JFH-1 virus particle-infected Huh-7 cells; assay: Combination of SFN with antiviral drugs in HCV-infected cells (CalcuSyn2, Chou and Talalay); format: cell-based, Hepatitis C virus; conditions: JFH-1-infected Huh-7 cells; for CI values at ED75 / CI values at ED90: fixed ratio, 3 days
Description: (§4) The anti-HCV activities of the different combinations were determined by qRT-PCR. The drug combination data were analyzed using CalcuSyn2™ software (Biosoft, Cambridge, UK) based on the method by Chou and Talalay. The multiple drug dose effects and combination index (CI) values were evaluated and presented as antagonism (CI > 1), additivity (CI = 1) or synergism (CI < 1).

[4] = test system: HCV subgenomic replicon in Ava5 cells; assay: Combination of SFN with antiviral drugs in replicon cells (CalcuSyn2, Chou and Talalay); format: cell-based, Hepatitis C virus; conditions: for CI values at ED75 / CI values at ED90: fixed ratio, 3 days
Description: as §4

[5] = test system: Ava5 cells; assay: Cell viability / cytotoxicity, MTS assay; format: cell-based; conditions: at doses where viral replication was inhibited
Excerpt: as §3

[6] = test system: HCV JFH-1 (genotype 2a) in Huh-7 cells; conditions: JFH-1-infected Huh-7 cells, 3 days
Description: HCV infectious particles (JFH-1; genotype 2a) were produced as previously described. HCV infection assay was used to determine the antiviral effect of SFN. Huh-7 cells were seeded in 24-well plates at a density of 5 × 10^4 cells per well and were infected with HCV for 6 h at a multiplicity of infection (MOI) of 0.1. The HCV-infected cells were treated with different concentrations (0–10μM) of SFN and incubated for 3 days, following which total RNA samples were extracted and subjected to qRT-PCR analysis for the quantification of HCV replication.

[7] = test system: HO-1; conditions: Ava5 cells, 0–10 μM, 3 days
Description: as §1
Western blotting was performed as previously described. Proteins from cell lysates were separated using SDS-PAGE and transferred onto PVDF membranes. […] The immunoreactive blot signals were detected using the enhanced chemiluminescence Western blotting reagent (Perkin-Elmer, CT, USA).

[8] = test system: IFN response (IFN-α, ISRE, OAS1, OAS2, OAS3, PKR)
Description: as §1

[9] = test system: PI3K; conditions: Ava5 cells, 7.5 μM SFN, 15 min after treatment
Description: as §2

[10] = test system: HCV JFH-1 in Huh7.5 cells
Description: The effect of SFN on HCV entry was determined according to previously described methods [22]. Briefly, Huh7.5 cells were infected with JFH-1 and treated with SFN for 1 hour at 37°C (endocytosis/fusion period). Finally, cells were washed and incubated in complete culture medium at 37°C for 45 hours. Subsequently, the cells were collected to quantify intracellular HCV RNA copy numbers. The effect of SFN on assembly and secretion were determined according to previously described methods [23]. The Huh7.5 cells were infected with JFH-1 and treated with indicated concentration of SFN. The viral supernatants and cell pellets were collected at 3 days postinfection for virus titration by qRT-PCR.
(A) Huh7.5 cells were infected with JFH-1 and treated with SFN for 1 hr at 37°C and then the infectecells were washed and incubated in complete culture medium. The intracellular HCV RNA copy numbers were quantified by qRT-PCR. The treatment of heparin served as positive control for the inhibition of HCV entry. The relative HCV entry were presented as percentage changes compared to the SFN-untreated cells, which were considered as 100%. (B) Huh7.5 cells were infected with JFH-1 and then treated with SFN for 72 hrs. The supernatant and cell lysate were collected and the HCV RNA copy numbers were quantified by qRT-PCR.

[11] = molecular target: HCV NS3/4A protease (Hepatitis C virus genotype 1b, UniProt Q9WMX2); conditions: Huh-7 cells, 0–10 μM, 3 days, compared to untreated controls; restored with SnPP
Description: The supernatants were harvested for measurement of SEAP activity by Phospha-Light assay kit (Tropix, Bedford, UK).
The culture supernatants were harvested and the SEAP activity was analyzed by Phospha-Light assay kit. Telaprevir (1 μM) and biliverdin (100 μM) served as positive controls for anti-HCV protease activity. The relative SEAP activities were presented as fold changes compared to untreated cells, in which as the activity was considered to be 1.

[12] = test system: bilirubin / BVR; conditions: Ava5 cells, 3 days
Description: Intracellular bilirubin level was quantified as previously described [24]. Cells were seeded in 6-well plates at a density of 4 × 10^5 cells per well and treated with SFN at indicated concentrations for 3 days. Cell lysates were harvested and the amount of bilirubin was quantified using Calibrator for Automated Systems (c.f.a.s) (Roche Diagnostics Ltd., South San Francisco, CA, USA) and MeDiPro direct bilirubin test kit (Formosa Biomedical Technology Corp., Taipei, Taiwan). The absorbance values at 546 and 660 nm were measured using the Epoch microplate spectrophotometer (BioTek Instruments, Inc., Winooski, VT, USA).
The parental Huh-7 cells were used to determine basal bilirubin levels. […] Ava5 cells were treated with the indicated concentrations of SFN for 3 days. The expression of BVR was analyzed by qRT-PCR and Western blotting using specific primers and antibodies for BVR and GAPDH, respectively. GAPDH expression was used as protein loading control.

[13] = rats, oral dosing of 50 μmol of SFN, cited from earlier work
[14] = test system: Nrf2/ARE; assay: ARE transactivation and Nrf2 expression in Ava5 cells (p3xARE-Luc, Western blotting)
[15] = Hepatitis C virus, 72 h, Ava5 cells, 3 days, HCV RNA levels by qRT-PCR

Chain of HCV NS3/4A protease (Q9WMX2 1027-1657): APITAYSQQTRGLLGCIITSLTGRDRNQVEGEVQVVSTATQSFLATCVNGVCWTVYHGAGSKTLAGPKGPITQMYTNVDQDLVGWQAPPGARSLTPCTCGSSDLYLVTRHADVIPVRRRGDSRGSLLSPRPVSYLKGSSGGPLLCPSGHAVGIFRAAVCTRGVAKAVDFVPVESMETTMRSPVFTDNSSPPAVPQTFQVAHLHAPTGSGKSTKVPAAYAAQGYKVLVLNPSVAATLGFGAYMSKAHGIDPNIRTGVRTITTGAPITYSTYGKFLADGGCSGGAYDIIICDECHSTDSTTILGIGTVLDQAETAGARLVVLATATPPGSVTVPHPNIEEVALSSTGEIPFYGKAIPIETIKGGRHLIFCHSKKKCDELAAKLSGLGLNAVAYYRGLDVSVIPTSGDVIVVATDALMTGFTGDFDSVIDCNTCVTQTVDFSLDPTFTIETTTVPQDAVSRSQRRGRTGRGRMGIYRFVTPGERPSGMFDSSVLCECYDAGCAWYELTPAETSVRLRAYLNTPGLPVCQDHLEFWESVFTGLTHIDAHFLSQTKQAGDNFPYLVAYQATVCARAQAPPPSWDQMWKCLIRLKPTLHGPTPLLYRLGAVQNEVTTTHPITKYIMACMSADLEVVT
Chain of HCV NS3/4A protease (Q9WMX2 1658-1711): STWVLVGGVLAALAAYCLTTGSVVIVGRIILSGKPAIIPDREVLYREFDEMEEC

In the case of `C=CCN=C=S` [Allyl isothiocyanate, allyl isothiocyanate], the “Selective Index (SI)” value [1] is reported as 1.5, the EC50 [1, 15] is reported as 20 ± 2 µM and the CC50 at 3 days [2] is reported as 33 ± 3 µM.
In the case of `S=C=NCc1ccccc1` [Benzyl isothiocyanate, benzyl isothiocyanate], the “Selective Index (SI)” value [1] is reported as 3, the EC50 [1, 15] is reported as 20 ± 2 µM and the CC50 at 3 days [2] is reported as 67 ± 2 µM.
Molecule `CCCCN=C=S` [Butyl isothiocyanate, butyl isothiocyanate] has a CC50 at 3 days [2] of 95 ± 6 µM.
In the case of `COC(=O)N[C@H](C(=O)N1CCC[C@H]1c1nc(-c2ccc(-c3ccc(-c4c[nH]c([C@@H]5CCCN5C(=O)[C@@H](NC(=O)OC)C(C)C)n4)cc3)cc2)c[nH]1)C(C)C` [Daclatasvir], the Influence [3] is reported as “Synergistic”, the “CI values at ED75” value [3] is reported as 0.5 and the “CI values at ED90” value [3] is reported as 0.4. For the same molecule, the Influence [4] was “Synergistic”, the “CI values at ED75” value [4] was 0.5 and the “CI values at ED90” value [4] was 0.4.
Molecule `S=C=NCCc1ccccc1` [Phenethyl isothiocyanate, phenethyl isothiocyanate] has an EC50 ([1]; Hepatitis C virus, Ava5, 72 h) of 2.5 ± 0.5 µM and a CC50 at 3 days [2] of 10 ± 1.5 µM.
In the case of `CC(C)OC(=O)[C@H](C)N[P@](=O)(OC[C@H]1O[C@@H](n2ccc(=O)[nH]c2=O)[C@](C)(F)[C@@H]1O)Oc1ccccc1` [Sofobuvir, sofosbuvir], the Influence [3] is reported as “Synergistic”, the “CI values at ED75” value [3] is reported as 0.5 and the “CI values at ED90” value [3] is reported as 0.4. For the same molecule, the Influence [4] was “Synergistic”, the “CI values at ED75” value [4] was 0.5 and the “CI values at ED90” value [4] was 0.4.
In the case of `C[S+]([O-])CCCCN=C=S` (stereo not shown) [Sulforaphane], the “inhibition of viral replication” value ([1]; 10 μM SFN, Ava5 cells, 3 days, compared to SFN-untreated cells) is reported as 90%, the “HCV protein synthesis and RNA replication” value ([1]; Ava5 cells, 0–10 μM, 3 days, concentration-dependent) is reported as “significantly reduced” and the “Selective Index (SI)” value [1] is reported as roughly 10. For the same molecule, the EC50 ([1]; Hepatitis C virus, Ava5, 72 h) was 5 ± 1.5 µM, the IC50 ([1]; Hepatitis C virus, Ava5, HCV replicon cells and infectious system, read-out: IC50 value, suppression of HCV protein and RNA levels) was 5.7 ± 0.2 µM and the CC50 at 3 days [2] was 52 ± 3 µM. For the same molecule, the “cytotoxicity (cell viability by MTS assay)” value [5] was “did not induce significant cytotoxicity”, the “antiviral activity in the HCV JFH-1 infection system” value [6] was “exhibited antiviral activity” and the “HO-1 RNA and protein levels” value [7] was “significantly increased”. For the same molecule, the “IFN-α2 and IFN-α17 expression” value ([8]; Ava5 cells, 3 days, qRT-PCR, attenuated with SnPP) was “significantly induced”, the “IFN-α levels in culture supernatants” value ([8]; Ava5 cells, ELISA, effective antiviral concentrations, attenuated by SnPP) was “significantly increased” and the “expression of IFN response genes (OAS1, OAS2, OAS3, PKR)” value ([8]; Ava5 cells, qRT-PCR, attenuated by SnPP) was “significantly induced”. The ISRE-mediated luciferase activity ([8]; pISRE-Luc-transfected Ava5 cells, 3 days, attenuated with SnPP) was “significant induction”, the “phosphorylation of PI3K” value [9] was “significantly induced” and the “inhibition on viral entry” value ([10]; Huh7.5 cells infected with JFH-1, SFN 1 hour) was “no significant inhibition”. The “inhibition on viral assembly” value ([10]; Huh7.5 cells infected with JFH-1, SFN 3 days) was “no significant inhibition”, the “HCV protease activity (SEAP)” value [11] was “significantly decreased” and the bilirubin levels ([12]; 0–10 μM) was “significant increase”. For the same molecule, the “BVR RNA or protein levels” value [12] was “did not detect any significant changes”, the plasma concentration ([13]; reached within 4h) was “around 20 μM” and the elimination half-life [13] was 2.2 h. The “time at which plasma concentration of SFN occurred” value [13] was 1 h, the “protein levels of Keap1 and Bach1” value ([14]; Ava5 cells) was “did not observe significant changes” and the “expression of Nrf2 in cytoplasmic and nuclear fractions” value ([14]; Ava5 cells, concentration-dependent) was “significant increase”. For the same molecule, the ARE-mediated luciferase activity ([14]; p3xARE-Luc-transfected Ava5 cells, 3 days, effective antiviral concentrations) was “significantly increased”.
For `CCC[C@H](NC(=O)[C@@H]1[C@H]2CCC[C@H]2CN1C(=O)[C@@H](NC(=O)[C@@H](NC(=O)c1cnccn1)C1CCCCC1)C(C)(C)C)C(=O)C(=O)NC1CC1` [Telapriver, telaprevir], the Influence [3] was “Synergistic”, the “CI values at ED75” value [3] was 0.6 and the “CI values at ED90” value [3] was 0.5. For the same molecule, the Influence [4] was “Synergistic”, the “CI values at ED75” value [4] was 0.7 and the “CI values at ED90” value [4] was 0.6.
